From the NIST ThermoML archive (doi:10.1021/je500420g)
Numbers after ± are expanded uncertainties.

Assay: xn = mol fraction of the nth substance listed
Conditions: 100 kPa, Liquid, Vibrating tube method

mass density (293.15 K, x1 = 0.01) | mass density (293.15 K, x1 = 0.03) | mass density (293.15 K, x1 = 0.05) | mass density (303.15 K, x1 = 0.01) | mass density (303.15 K, x1 = 0.03) | mass density (303.15 K, x1 = 0.05) | mass density (313.15 K, x1 = 0.01) | mass density (313.15 K, x1 = 0.03) | mass density (313.15 K, x1 = 0.05) | mass density (323.15 K, x1 = 0.01) | mass density (323.15 K, x1 = 0.03) | mass density (323.15 K, x1 = 0.05) | mass density (333.15 K, x1 = 0.01) | mass density (333.15 K, x1 = 0.03) | mass density (333.15 K, x1 = 0.05) | Compound
1065.2 ± 0.2 kg/m3 | 1194 ± 0.3 kg/m3 | 1317.9 ± 0.4 kg/m3 | 1061.9 ± 0.2 kg/m3 | 1189.3 ± 0.3 kg/m3 | 1312.1 ± 0.4 kg/m3 | 1057.9 ± 0.2 kg/m3 | 1184.1 ± 0.3 kg/m3 | 1306 ± 0.4 kg/m3 | 1053.2 ± 0.2 kg/m3 | 1178.4 ± 0.3 kg/m3 | 1299.3 ± 0.4 kg/m3 | 1047.9 ± 0.2 kg/m3 | 1172.3 ± 0.3 kg/m3 | 1292.4 ± 0.4 kg/m3 | [I-].[K+] [potassium iodide] + O
1068.6 ± 0.2 kg/m3 | 1204.6 ± 0.3 kg/m3 | 1336.9 ± 0.4 kg/m3 | 1065 ± 0.2 kg/m3 | 1199.7 ± 0.3 kg/m3 | 1331 ± 0.4 kg/m3 | 1060.7 ± 0.2 kg/m3 | 1194.5 ± 0.3 kg/m3 | 1324.9 ± 0.4 kg/m3 | 1056 ± 0.2 kg/m3 | 1188.9 ± 0.3 kg/m3 | 1318.6 ± 0.4 kg/m3 | 1050.9 ± 0.2 kg/m3 | 1182.9 ± 0.3 kg/m3 | 1312.2 ± 0.4 kg/m3 | [Br-].[Rb+] [rubidium bromide] + O
1048.3 ± 0.2 kg/m3 | 1144.2 ± 0.3 kg/m3 | 1237.9 ± 0.3 kg/m3 | 1044.8 ± 0.2 kg/m3 | 1139.8 ± 0.3 kg/m3 | 1232.8 ± 0.3 kg/m3 | 1040.7 ± 0.2 kg/m3 | 1135 ± 0.3 kg/m3 | 1227.5 ± 0.3 kg/m3 | 1036.1 ± 0.2 kg/m3 | 1130 ± 0.3 kg/m3 | 1222 ± 0.3 kg/m3 | 1031.2 ± 0.2 kg/m3 | 1124.7 ± 0.3 kg/m3 | 1216.3 ± 0.3 kg/m3 | [Cl-].[Rb+] [rubidium chloride] + O

Second part, the compound before the results:

Compound | mass density (293.15 K, x1 = 0.01) | mass density (293.15 K, x1 = 0.03) | mass density (293.15 K, x1 = 0.05) | mass density (303.15 K, x1 = 0.01) | mass density (303.15 K, x1 = 0.03) | mass density (303.15 K, x1 = 0.05) | mass density (313.15 K, x1 = 0.01) | mass density (313.15 K, x1 = 0.03) | mass density (313.15 K, x1 = 0.05) | mass density (323.15 K, x1 = 0.01) | mass density (323.15 K, x1 = 0.03) | mass density (323.15 K, x1 = 0.05) | mass density (333.15 K, x1 = 0.01) | mass density (333.15 K, x1 = 0.03) | mass density (333.15 K, x1 = 0.05)
[I-].[Li+] [lithium iodide] + O | 1053.3 ± 0.2 kg/m3 | 1160.8 ± 0.3 kg/m3 | 1268.1 ± 0.4 kg/m3 | 1049.8 ± 0.2 kg/m3 | 1156.3 ± 0.3 kg/m3 | 1262.7 ± 0.4 kg/m3 | 1045.7 ± 0.2 kg/m3 | 1151 ± 0.3 kg/m3 | 1257.2 ± 0.4 kg/m3 | 1041.2 ± 0.2 kg/m3 | 1146.1 ± 0.3 kg/m3 | 1251.4 ± 0.4 kg/m3 | 1036.2 ± 0.2 kg/m3 | 1140.7 ± 0.3 kg/m3 | 1245.5 ± 0.4 kg/m3
[Br-].[K+] [potassium bromide] + O | 1045.7 ± 0.2 kg/m3 | 1137.7 ± 0.3 kg/m3 | 1227.4 ± 0.3 kg/m3 | 1042.6 ± 0.2 kg/m3 | 1133.7 ± 0.3 kg/m3 | 1222.6 ± 0.3 kg/m3 | 1038.7 ± 0.2 kg/m3 | 1129.1 ± 0.3 kg/m3 | 1217.4 ± 0.3 kg/m3 | 1034.2 ± 0.2 kg/m3 | 1123.9 ± 0.3 kg/m3 | 1211.7 ± 0.3 kg/m3 | 1029.2 ± 0.2 kg/m3 | 1118.4 ± 0.3 kg/m3 | 1205.7 ± 0.3 kg/m3
[Cl-].[K+] [potassium chloride] + O | 1024.3 ± 0.2 kg/m3 | 1074.8 ± 0.2 kg/m3 | 1123.6 ± 0.3 kg/m3 | 1021.4 ± 0.2 kg/m3 | 1071.2 ± 0.2 kg/m3 | 1119.6 ± 0.3 kg/m3 | 1017.7 ± 0.2 kg/m3 | 1067 ± 0.2 kg/m3 | 1115.1 ± 0.3 kg/m3 | 1013.3 ± 0.2 kg/m3 | 1062.4 ± 0.2 kg/m3 | 1110.2 ± 0.3 kg/m3 | 1008.4 ± 0.2 kg/m3 | 1057.2 ± 0.3 kg/m3 | 1104.9 ± 0.3 kg/m3
[F-].[K+] [potassium fluoride] + O | 1025.7 ± 0.2 kg/m3 | 1080.5 ± 0.2 kg/m3 | 1135.5 ± 0.3 kg/m3 | 1022.8 ± 0.2 kg/m3 | 1077 ± 0.2 kg/m3 | 1130.7 ± 0.3 kg/m3 | 1019.2 ± 0.2 kg/m3 | 1072.9 ± 0.2 kg/m3 | 1126.5 ± 0.3 kg/m3 | 1014.8 ± 0.2 kg/m3 | 1068.4 ± 0.2 kg/m3 | 1121.9 ± 0.3 kg/m3 | 1010 ± 0.2 kg/m3 | 1063.5 ± 0.2 kg/m3 | 1116.9 ± 0.3 kg/m3
